According to PMC8037182, “Solvothermal Synthesis of Multiple Dihydropyrimidinones at a Time as Inhibitors of Eg5” (Molecules, 2021):

Legend:
L929 cell line = test: Cytotoxicity MTS assay, L929 cell line; format: cell-based; conditions: for OD490 values, Mean / OD490 values, Well 1 / OD490 values, Well 2 / OD490 values, Well 3: L929 cell line
Experimental: (§1) The positive compounds (IC50 < 100 μM) obtained from the primary Eg5 motor protein ATPase assay were tested for antiproliferative activity in vitro against Caco-2 cell line, Hela cell line, L929 cell line and T24 cell line by performing MTS assay. Cells were introduced into 96-well plates at a density of 1000 cells per well. After 24 h incubation, the cells were exposed with compounds at final concentrations ranging from 0.5 to 100 µM for 24 h. DMSO was used at a final concentration of 0.025% as blank control, monastrol was used as the positive control. Then 20 µL (CellTiter 96® AQueous One Solution Promega, Madison, WI, USA) reagent was added in each well. After 2 h at 37 °C in a 80% humidified, 5% CO2 atmosphere, the absorbance at 490 nm was recorded using a microplate reader (BIO-RAD iMark^TM). The results were obtained in three independent duplicate experiments. The primary data were shown in Supplementary Materials Tables S4–S7. The IC50 values for these compounds were calculated from a non-linear regression graph plotted between the percentage of cell viability and concentration with SPSS17.0 software.

T24 cell line = test: Cytotoxicity MTS assay, T24 cell line; format: cell-based; conditions: for OD490 Mean / OD490 Well 1 / OD490 Well 2 / OD490 Well 3: T24 cell line
Experimental: as §1

## CCOC(=O)c1c(C2NC(=O)NC(C)=C2C(=O)Nc2ccccc2OC)[nH]c(C(=O)OC)c1C (centres unmarked) [D1]
L929 cell line; 0.5μM, first assay
  OD490 values, Mean: 1.3706
  OD490 values, Well 1: 1.4101
  OD490 values, Well 2: 1.3370
  OD490 values, Well 3: 1.3648
L929 cell line; 0.5μM, second assay
  OD490 values, Mean: 1.7900
  OD490 values, Well 1: 1.7354
  OD490 values, Well 2: 1.9532
  OD490 values, Well 3: 1.6814
L929 cell line; 0.5μM, third assay
  OD490 values, Mean: 1.6902
  OD490 values, Well 1: 1.6425
  OD490 values, Well 2: 1.7433
  OD490 values, Well 3: 1.6847
L929 cell line; 1μM, first assay
  OD490 values, Mean: 1.3549
  OD490 values, Well 1: 1.3334
  OD490 values, Well 2: 1.3850
  OD490 values, Well 3: 1.3462
L929 cell line; 1μM, second assay
  OD490 values, Mean: 1.7547
  OD490 values, Well 1: 1.7965
  OD490 values, Well 2: 1.7320
  OD490 values, Well 3: 1.7355
L929 cell line; 1μM, third assay
  OD490 values, Mean: 1.7249
  OD490 values, Well 1: 1.7365
  OD490 values, Well 2: 1.7452
  OD490 values, Well 3: 1.6930
L929 cell line; 10μM, first assay
  OD490 values, Mean: 1.3153
  OD490 values, Well 1: 1.3870
  OD490 values, Well 2: 1.3090
  OD490 values, Well 3: 1.2498
L929 cell line; 10μM, second assay
  OD490 values, Mean: 1.7648
  OD490 values, Well 1: 1.6895
  OD490 values, Well 2: 1.7985
  OD490 values, Well 3: 1.8063
L929 cell line; 10μM, third assay
  OD490 values, Mean: 1.7158
  OD490 values, Well 1: 1.7235
  OD490 values, Well 2: 1.7253
  OD490 values, Well 3: 1.6985
L929 cell line; 25μM, first assay
  OD490 values, Mean: 1.2680
  OD490 values, Well 1: 1.2444
  OD490 values, Well 2: 1.2849
  OD490 values, Well 3: 1.2747
L929 cell line; 25μM, second assay
  OD490 values, Mean: 1.6159
  OD490 values, Well 1: 1.6525
  OD490 values, Well 2: 1.5652
  OD490 values, Well 3: 1.6301
L929 cell line; 25μM, third assay
  OD490 values, Mean: 1.4383
  OD490 values, Well 1: 1.5307
  OD490 values, Well 2: 1.3321
  OD490 values, Well 3: 1.4521
L929 cell line; 50μM, first assay
  OD490 values, Mean: 1.2064
  OD490 values, Well 1: 1.2251
  OD490 values, Well 2: 1.1315
  OD490 values, Well 3: 1.2627
L929 cell line; 50μM, second assay
  OD490 values, Mean: 1.4454
  OD490 values, Well 1: 1.4685
  OD490 values, Well 2: 1.3855
  OD490 values, Well 3: 1.4822
L929 cell line; 50μM, third assay
  OD490 values, Mean: 1.3084
  OD490 values, Well 1: 1.3124
  OD490 values, Well 2: 1.3165
  OD490 values, Well 3: 1.2962
L929 cell line; 100μM, first assay
  OD490 values, Mean: 1.1038
  OD490 values, Well 1: 1.1234
  OD490 values, Well 2: 1.0461
  OD490 values, Well 3: 1.1419
L929 cell line; 100μM, second assay
  OD490 values, Mean: 1.2865
  OD490 values, Well 1: 1.2022
  OD490 values, Well 2: 1.2699
  OD490 values, Well 3: 1.3874
L929 cell line; 100μM, third assay
  OD490 values, Mean: 1.3217
  OD490 values, Well 1: 1.4554
  OD490 values, Well 2: 1.2165
  OD490 values, Well 3: 1.2933
L929 cell line; MTS assay, 24 h exposure, ordinary fibroblast, not cancer cells
  IC50: 125 µM
T24 cell line; MTS assay, 24 h exposure
  IC50: 130 µM
T24 cell line; 0.5μM, first assay
  OD490 Mean: 1.7953
  OD490 Well 1: 1.9580
  OD490 Well 2: 1.8859
  OD490 Well 3: 1.5421
T24 cell line; 0.5μM, second assay
  OD490 Mean: 1.6618
  OD490 Well 1: 1.6321
  OD490 Well 2: 1.6547
  OD490 Well 3: 1.6987
T24 cell line; 0.5μM, third assay
  OD490 Mean: 1.6883
  OD490 Well 1: 1.6325
  OD490 Well 2: 1.6625
  OD490 Well 3: 1.7698
T24 cell line; 1μM, first assay
  OD490 Mean: 1.8122
  OD490 Well 1: 1.9288
  OD490 Well 2: 1.8729
  OD490 Well 3: 1.6348
T24 cell line; 1μM, second assay
  OD490 Mean: 1.5761
  OD490 Well 1: 1.5621
  OD490 Well 2: 1.7412
  OD490 Well 3: 1.4251
T24 cell line; 1μM, third assay
  OD490 Mean: 1.7342
  OD490 Well 1: 1.7236
  OD490 Well 2: 1.7425
  OD490 Well 3: 1.7365
T24 cell line; 10μM, first assay
  OD490 Mean: 1.8792
  OD490 Well 1: 2.1723
  OD490 Well 2: 1.7790
  OD490 Well 3: 1.6864
T24 cell line; 10μM, second assay
  OD490 Mean: 1.7434
  OD490 Well 1: 1.9658
  OD490 Well 2: 1.6625
  OD490 Well 3: 1.6020
T24 cell line; 10μM, third assay
  OD490 Mean: 1.7548
  OD490 Well 1: 1.7768
  OD490 Well 2: 1.8524
  OD490 Well 3: 1.6352
T24 cell line; 25μM, first assay
  OD490 Mean: 1.7549
  OD490 Well 1: 1.8700
  OD490 Well 2: 1.7393
  OD490 Well 3: 1.6554
T24 cell line; 25μM, second assay
  OD490 Mean: 1.7221
  OD490 Well 1: 1.6685
  OD490 Well 2: 1.7236
  OD490 Well 3: 1.7741
T24 cell line; 25μM, third assay
  OD490 Mean: 1.8268
  OD490 Well 1: 1.7747
  OD490 Well 2: 1.7535
  OD490 Well 3: 1.9522
T24 cell line; 50μM, first assay
  OD490 Mean: 1.5187
  OD490 Well 1: 1.4408
  OD490 Well 2: 1.5156
  OD490 Well 3: 1.5997
T24 cell line; 50μM, second assay
  OD490 Mean: 1.5158
  OD490 Well 1: 1.5365
  OD490 Well 2: 1.5214
  OD490 Well 3: 1.4896
T24 cell line; 50μM, third assay
  OD490 Mean: 1.4458
  OD490 Well 1: 1.4214
  OD490 Well 2: 1.4823
  OD490 Well 3: 1.4336
T24 cell line; 100μM, first assay
  OD490 Mean: 1.4345
  OD490 Well 1: 1.4729
  OD490 Well 2: 1.3331
  OD490 Well 3: 1.4975
T24 cell line; 100μM, second assay
  OD490 Mean: 1.3859
  OD490 Well 1: 1.3654
  OD490 Well 2: 1.5687
  OD490 Well 3: 1.2235
T24 cell line; 100μM, third assay
  OD490 Mean: 1.3345
  OD490 Well 1: 1.3553
  OD490 Well 2: 1.4058
  OD490 Well 3: 1.2423
